In patent publication US8658794B2, “8-methyl-1-phenyl-imidazol[1,5-a]pyrazine compounds as Lck inhibitors and uses thereof” (Merck Sharp & Dohme B.V., priority 2010, dated 2014):

Molecular target: T1, N-terminal His6-tagged recombinant full-length human Lck (Homo sapiens, UniProt P06239)
T1 construct: N-terminal His6-tagged recombinant full-length human Lck; His6 (N); purchased Millipore
Experiment: Lck IMAP assay
Format: biochemical
Conditions: ATP 6 μM (KM,ATP), enzyme pre-incubated with compounds for 60 minutes, values given as bins
Text: Inhibition of kinase activity can be measured using the Immobilized Metal Assay for Phosphochemicals (IMAP) assay. IMAP is a homogeneous fluorescence polarization (FP) assay based on affinity capture of phosphorylated peptide substrates. IMAP uses fluorescein-labeled peptide substrates that, upon phosphorylation by a protein kinase, bind to so-called IMAP nanoparticles, which are derivatized with trivalent metal complexes. Binding causes a change in the rate of the molecular motion of the peptide, and results in an increase in the FP value observed for the fluorescein label attached to the substrate peptide (Gaudet et al. A homogeneous fluorescence polarization assay adaptable for a range of protein serine/threonine and tyrosine kinases. J. Biomol. Screen (2003) 8, 164-175).
Enzyme used was N-terminal His6-tagged recombinant full-length human Lck from Millipore. Phosphorylation substrate was a fluorescein-labeled peptide (5FAM-KVEKIGEGTYGVV—NH2) derived from p34cdc2 from Molecular Devices. Enzymes, substrate and ATP were diluted in Kinase Reaction buffer (10 mM Tris-HCl, 10 mM MgCl2, 0.01% Tween-20, 0.05% NaN3 pH 7.2, 1 mM DTT (dithiotreitol). The final volume at the kinase reaction step of the assay in the 384-well plate was 20 μl. Final amount of enzyme in the reaction was 0.1 U/ml. Enzyme was pre-incubated with compounds diluted in 1% DMSO (dimethylsulfoxide) for 60 minutes at room temperature in the dark. Subsequently, peptide substrate to a final concentration of 100 nM, and ATP to a final concentration of 6 μM were added and the mix was incubated for 120 minutes at room temperature in the dark. IMAP progressive binding buffer (75% 1× buffer A, 25% 1× buffer B with 1:600 Progressive Binding Reagent; Molecular Devices) was added, followed by an incubation step of 60 minutes at room temperature in the dark. Finally, the FP signal was read on an Envision Multilabel reader (Perkin Elmer).
All biochemical assays were run at KM,ATP of the enzyme using non-saturated conditions, meaning that during the incubation time it was assured that the signal increase was linear with time. For all biochemical assays a reference standard was used on each plate.
Ten point serial dilutions using a √10 dilution factor were used for dose response testing of compounds. Starting concentration was 10^-6M for Lck IMAP assays. Dose-response curves were run as two experiments on duplicate plates (N=1; n=2). All data was normalized to percentage effect based on maximum (Max) and minimum (Min) control values. On every 384 assay plate 16 wells were used as minimum wells (wells with ATP, 0% effect) and 16 wells were used as maximum wells (wells without ATP, 100% effect). 16 wells were used for measuring the background signal, obtained from a kinase reaction containing all constituents except the labeled peptide substrate. Percentage effect was plotted against log dilution concentration of compound to obtain sigmoid dose response curves. pIC50 values were calculated using ActivityBase.

T1 sequence (P06239 whole entry): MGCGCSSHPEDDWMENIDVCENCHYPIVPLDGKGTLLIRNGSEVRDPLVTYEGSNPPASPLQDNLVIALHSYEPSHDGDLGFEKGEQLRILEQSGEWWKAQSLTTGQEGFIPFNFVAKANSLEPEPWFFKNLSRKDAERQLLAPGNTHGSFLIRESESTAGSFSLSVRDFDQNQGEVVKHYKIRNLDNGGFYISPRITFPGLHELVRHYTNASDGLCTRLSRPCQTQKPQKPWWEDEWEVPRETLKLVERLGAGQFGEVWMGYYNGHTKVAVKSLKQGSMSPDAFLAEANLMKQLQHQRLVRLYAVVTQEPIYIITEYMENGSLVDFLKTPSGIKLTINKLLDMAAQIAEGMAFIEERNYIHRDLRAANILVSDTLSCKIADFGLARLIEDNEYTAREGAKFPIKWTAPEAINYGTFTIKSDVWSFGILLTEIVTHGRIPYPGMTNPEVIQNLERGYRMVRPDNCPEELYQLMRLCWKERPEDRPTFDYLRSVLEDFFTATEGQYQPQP

Structure (SMILES) | IC50
CCC[C@H](C)OC(=O)Nc1ccc(-c2nc(C3CCC(N4CCN(C)CC4)C3)n3ccnc(C)c23)cc1OC (mixture of isomers) [Example 28, (S)-Pentan-2-yl 2-methoxy-4-(8-methyl-3-(3-(4-methylpiperazin-1-yl)cyclopentyl)imidazo[1,5-a]pyrazin-1-yl)phenylcarbamate] | ≤ 0.01 µM
COc1cc(-c2nc(C3CCOCC3)n3ccnc(C)c23)ccc1NC(=O)c1cc2ccccc2n1C [Example 1, N-[2-Methoxy-4-[8-methyl-3-(tetrahydro-2H-pyran-4-yl)imidazo[1,5-a]pyrazine]phenyl]-1-methyl-1H-indole-2-carboxamide] | ≤ 0.01 µM
COc1cc(-c2nc([C@H]3CC[C@H](N4CCN(C(C)=O)CC4)CC3)n3ccnc(C)c23)ccc1NC(=O)c1cc2c(OC)cccc2n1C [Example 2, N-(4-(3-((Trans)-4-(4-acetylpiperazin-1-yl)cyclohexyl)-8-methylimidazo[1,5-a]pyrazin-1-yl)-2-methoxyphenyl)-4-methoxy-1-methyl-1H-indole-2-carboxamide] | ≤ 0.01 µM
CCC[C@H](C)OC(=O)Nc1ccc(-c2nc(N3CCC3)n3ccnc(C)c23)cc1OC [Example 3, (S)-pentan-2-yl 4-(3-(azetidin-1-yl)-8-methylimidazo[1,5-a]pyrazin-1-yl)-2-methoxyphenylcarbamate] | 0.01 to 0.1 µM
CCC[C@H](C)OC(=O)Nc1ccc(-c2nc([C@@H]3CCN(C(=O)CN(C)C)C3)n3ccnc(C)c23)cc1OC [Example 4, (S)-pentan-2-yl 4-(3-((R)-1-(2-(dimethylamino)acetyl)pyrrolidin-3-yl)-8-methylimidazo[1,5-a]pyrazin-1-yl)-2-methoxyphenylcarbamate] | ≤ 0.01 µM
COc1cc(-c2nc([C@H]3CC[C@H](OC(C)=O)CC3)n3ccnc(C)c23)ccc1NC(=O)c1cc2c(OC)cccc2n1C [Example 5, (Trans)-4-(1-(3-methoxy-4-(4-methoxy-1-methyl-1H-indole-2-carboxamido)phenyl)-8-methylimidazo[1,5-a]pyrazin-3-yl)cyclohexyl acetate] | ≤ 0.01 µM
COc1cc(-c2nc([C@H]3CC[C@H](O)CC3)n3ccnc(C)c23)ccc1NC(=O)c1cc2c(OC)cccc2n1C [Example 6, N-(4-(3-((trans)-4-hydroxycyclohexyl)-8-methylimidazo[1,5-a]pyrazin-1-yl)-2-methoxyphenyl)-4-methoxy-1-methyl-1H-indole-2-carboxamide] | ≤ 0.01 µM
COc1cc(-c2nc([C@H]3CC[C@H](N4CCN(C)CC4)CC3)n3ccnc(C)c23)ccc1NC(=O)c1cc2c(OC)cccc2n1C [Example 7, 4-Methoxy-N-(2-methoxy-4-(8-methyl-3-((trans)-4-(4-methylpiperazin-1-yl)cyclohexyl)imidazo[1,5-a]pyrazin-1-yl)phenyl)-1-methyl-1H-indole-2-carboxamide] | ≤ 0.01 µM
COc1cc(-c2nc([C@H]3CC[C@@H](N4CCN(C)CC4)CC3)n3ccnc(C)c23)ccc1NC(=O)c1cc2c(OC)cccc2n1C [Example 8, 4-Methoxy-N-(2-methoxy-4-(8-methyl-3-((cis)-4-(4-methylpiperazin-1-yl)cyclohexyl)imidazo[1,5-a]pyrazin-1-yl)phenyl)-1-methyl-1H-indole-2-carboxamide] | ≤ 0.01 µM
COc1cc(-c2nc([C@H]3CC[C@H](N4CC(F)(F)C4)CC3)n3ccnc(C)c23)ccc1NC(=O)c1cc2c(OC)cccc2n1C [Example 9, N-(4-(3-((trans)-4-(3,3-difluoroazetidin-1-yl)cyclohexyl)-8-methylimidazo[1,5-a]pyrazin-1-yl)-2-methoxyphenyl)-4-methoxy-1-methyl-1H-indole-2-carboxamide] | ≤ 0.01 µM
COc1cc(-c2nc([C@H]3CC[C@@H](N4CC(F)(F)C4)CC3)n3ccnc(C)c23)ccc1NC(=O)c1cc2c(OC)cccc2n1C [Example 10, N-(4-(3-((cis)-4-(3,3-difluoroazetidin-1-yl)cyclohexyl)-8-methylimidazo[1,5-a]pyrazin-1-yl)-2-methoxyphenyl)-4-methoxy-1-methyl-1H-indole-2-carboxamide] | ≤ 0.01 µM
CCC[C@H](C)OC(=O)Nc1ccc(-c2nc([C@H]3CC[C@H](NCCOC)CC3)n3ccnc(C)c23)cc1OC [Example 11, (S)-Pentan-2-yl 2-methoxy-4-(3-((trans)-4-(2-methoxyethylamino)cyclohexyl)-8-methyl-imidazo[1,5-a]pyrazin-1-yl)phenylcarbamate] | ≤ 0.01 µM
COc1cc(-c2nc([C@H]3CC[C@H](N4CCOCC4)CC3)n3ccnc(C)c23)ccc1NC(=O)c1cc2ccccc2n1C [Example 12, N-(2-methoxy-4-(8-methyl-3-((trans)-4-morpholinocyclohexyl)imidazo[1,5-a]pyrazin-1-yl)phenyl)-1-methyl-1H-indole-2-carboxamide] | ≤ 0.01 µM
COc1cc(-c2nc(C3(C)COC3)n3ccnc(C)c23)ccc1NC(=O)c1cc2c(OC)cccc2n1C [Example 13, 4-Methoxy-N-(2-methoxy-4-(8-methyl-3-(3-methyloxetan-3-yl)imidazo[1,5-a]pyrazin-1-yl)phenyl)-1-methyl-1H-indole-2-carboxamide] | ≤ 0.01 µM
COc1cc(-c2nc(CO)n3ccnc(C)c23)ccc1NC(=O)c1cc2c(OC)cccc2n1C [Example 14, N-(4-(3-(hydroxymethyl)-8-methylimidazo[1,5-a]pyrazin-1-yl)-2-methoxyphenyl)-4-methoxy-1-methyl-1H-indole-2-carboxamide] | 0.01 to 0.1 µM
COc1cc(-c2nc(Cn3ccnc3)n3ccnc(C)c23)ccc1NC(=O)c1cc2c(OC)cccc2n1C [Example 15, N-(4-(3-((1H-imidazol-1-yl)methyl)-8-methylimidazo[1,5-a]pyrazin-1-yl)-2-methoxyphenyl)-4-methoxy-1-methyl-1H-indole-2-carboxamide] | 0.1 to 1 µM
COc1cc(-c2nc(C3CN(C4CCOCC4)C3)n3ccnc(C)c23)ccc1NC(=O)c1cc2c(OC)cccc2n1C [Example 16, 4-Methoxy-N-(2-methoxy-4-(8-methyl-3-(1-(tetrahydro-2H-pyran-4-yl)azetidin-3-yl)imidazo[1,5-a]pyrazin-1-yl)phenyl)-1-methyl-1H-indole-2-carboxamide] | 0.01 to 0.1 µM
COc1cc(-c2nc(C3CCNCC3)n3ccnc(C)c23)ccc1NC(=O)c1cc2c(OC)cccc2n1C [Example 17, 4-Methoxy-N-(2-methoxy-4-(8-methyl-3-(piperidin-4-yl)imidazo[1,5-a]pyrazin-1-yl)phenyl)-1-methyl-1H-indole-2-carboxamide] | ≤ 0.01 µM
COc1cc(-c2nc(C3CCN(CC(=O)N(C)C)CC3)n3ccnc(C)c23)ccc1NC(=O)c1cc2ccccc2n1C [Example 18, N-(4-(3-(1-(2-(dimethylamino)-2-oxoethyl)piperidin-4-yl)-8-methylimidazo[1,5-a]pyrazin-1-yl)-2-methoxyphenyl)-1-methyl-1H-indole-2-carboxamide] | ≤ 0.01 µM
COc1cc(-c2nc(C3CCN(C(=O)CN(C)C)CC3)n3ccnc(C)c23)ccc1NC(=O)c1cc2ccccc2n1C [Example 19, N-(4-(3-(1-(2-(dimethylamino)acetyl)piperidin-4-yl)-8-methylimidazo[1,5-a]pyrazin-1-yl)-2-methoxyphenyl)-1-methyl-1H-indole-2-carboxamide] | ≤ 0.01 µM
COc1cc(-c2nc(C3CCN(C(=O)CN)CC3)n3ccnc(C)c23)ccc1NC(=O)c1cc2ccccc2n1C [Example 20, N-(4-(3-(1-(2-Aminoacetyl)piperidin-4-yl)-8-methylimidazo[1,5-a]pyrazin-1-yl)-2-methoxyphenyl)-1-methyl-1H-indole-2-carboxamide] | ≤ 0.01 µM
COc1cc(-c2nc(C3CCN(C(N)=O)CC3)n3ccnc(C)c23)ccc1NC(=O)c1cc2c(OC)cccc2n1C [Example 21, N-(4-(3-(1-carbamoylpiperidin-4-yl)-8-methylimidazo[1,5-a]pyrazin-1-yl)-2-methoxyphenyl)-4-methoxy-1-methyl-1H-indole-2-carboxamide] | ≤ 0.01 µM
COC(=O)N1CCC(c2nc(-c3ccc(NC(=O)c4cc5c(OC)cccc5n4C)c(OC)c3)c3c(C)nccn23)CC1 [Example 22, Methyl 4-(1-(3-methoxy-4-(4-methoxy-1-methyl-1H-indole-2-carboxamido)phenyl)-8-methylimidazo[1,5-a]pyrazin-3-yl)piperidine-1-carboxylate] | ≤ 0.01 µM
